Test results: patent US9617256B2 (priority 2007, dated 2017)
≈ marks a conversion by molar mass, not a printed value.

Experiments:
[1] = system: APAE006 (strain of P. aeruginosa in which all efflux pumps are inactivated); test: microbe, parasite or virus in culture; assay type: cell-based; settings: Pseudomonas aeruginosa, read-out: MIC APAE006, P. aeruginosa, all efflux pumps inactivated
Method in brief: (§1)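 CLSI-guided microdilution: bacteria passaged overnight at 35° C. on Mueller-Hinton agar, tested in cation-adjusted broth at a final 3×10^5–7×10^5 CFU/mL across 2-fold drug dilutions, read after 18-24 h at 35° C.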

[2] = system: AABA1060 (clinical isolate of Acinetobacter baumannii); test: MIC broth microdilution, AABA1060; assay type: cell-based; settings: Acinetobacter baumannii, read-out: MIC AABA1060
Method in brief: as §1

[3] = system: APAE006 in the presence of 8 micrograms per milliliter of polymyxin B nonapeptide; assay type: cell-based, P. aeruginosa; settings: in the presence of 8 micrograms per milliliter of polymyxin B nonapeptide
Method in brief: as §1

APAE001 (ATCC27853) = test: MIC broth microdilution, APAE001; assay type: cell-based, P. aeruginosa; settings: Pseudomonas aeruginosa, ATCC27853, read-out: MIC APAE001, APAE001 is ATCC27853
Method in brief: as §1

[4] = system: AECO063 (ATCC25922 bearing an acrAB mutation); test: microbe, parasite or virus in culture; assay type: cell-based, E. coli; settings: Escherichia coli, ATCC25922, read-out: MIC AECO063
Method in brief: as §1

[5] = system: ASAU001 (laboratory strain of S. aureus, ATCC29213); test: MIC broth microdilution, ASAU001; assay type: cell-based; settings: Staphylococcus aureus, ATCC29213, read-out: MIC ASAU001
Method in brief: as §1

AECO001 HSA AGP = test: MIC broth microdilution, AECO001 HSA AGP; assay type: cell-based, E. coli; settings: Escherichia coli
Protocol: Bacterial isolates were cultivated from −70° C. frozen stocks by overnight passages at 35° C. in ambient air on Mueller-Hinton agar (Beckton Dickinson, Franklin Lakes, N.J.). Clinical isolates tested were obtained from various geographically diverse hospitals in the US and abroad (Focus Diagnostics, Herndon, Va. and JMI, North Liberty, Iowa). Quality control strains were from the American Type Culture Collection (ATCC; Rockville, Md.). Additional primary panel strains were generated using standard molecular biology techniques.
Minimum Inhibitory Concentrations (MICs) were determined by the broth microdilution method in accordance with the Clinical and Laboratory Standards Institute (CLSI) guidelines. In brief, organism suspensions were adjusted to a 0.5 McFarland standard to yield a final inoculum between 3×10^5 and 7×10^5 colony-forming units (CFU)/mL. Drug dilutions and inocula were made in sterile, cation adjusted Mueller-Hinton Broth (Beckton Dickinson). An inoculum volume of 100 μL was added to wells containing 100 μL of broth with 2-fold serial dilutions of drug. All inoculated microdilution trays were incubated in ambient air at 35° C. for 18-24 hours. […] Performance of the assay was monitored by the use of laboratory quality-control strains and levofloxacin, a compound with a defined MIC spectrum, in accordance with CLSI guidelines.
*AECO001 is ATCC25922, AECO063 is ATCC25922 bearing an acrAB mutation, APAE001 is ATCC27853, APAE006 is a strain of P. aeruginosa in which all efflux pumps are inactivated, APAE006+PMBN indicates MICs with the indicated strain in the presence of 8 micrograms per milliliter of polymyxin B nonapeptide, AABA1060 is a clinical isolate of Acinetobacter baumannii, ASAU001 is a laboratory strain of S. aureus (ATCC29213).

AECO001 (ATCC25922) = test: MIC broth microdilution, AECO001; assay type: cell-based, E. coli; settings: Escherichia coli, ATCC25922, read-out: MIC AECO001
Method in brief: as §1

## CC(C)(O)[C@H](NC(=O)c1ccc(C#C/C=C/c2ccc(CN3CCOCC3)cc2)cc1)C(=O)NO [Compound 97-2]
[1]
  MIC: < 2 µg/mL
[2]
  MIC: < 2 µg/mL
[3]
  MIC APAE006 + PMBN: A (MIC's of 2.0 μg/mL or less = A)
APAE001 (ATCC27853)
  MIC: < 2 µg/mL
[4]
  MIC: < 2 µg/mL
[5]
  MIC: 16 to 64 µg/mL (≈ 33.5 to 134 µM)
AECO001 HSA AGP
  MIC: < 2 µg/mL
AECO001 (ATCC25922)
  MIC: < 2 µg/mL

## C[C@@H](N)[C@H](NC(=O)c1ccc(/C=C/C#Cc2ccc(OC(F)(F)F)cc2)cc1)C(=O)NO [Example 114-7]
[1]
  MIC: 2 to 16 µg/mL (≈ 4.47 to 35.8 µM)
[2]
  MIC: 2 to 16 µg/mL (≈ 4.47 to 35.8 µM)
[3]
  MIC APAE006 + PMBN: A (MIC's of 2.0 μg/mL or less = A)
APAE001 (ATCC27853)
  MIC: 2 to 16 µg/mL (≈ 4.47 to 35.8 µM)
[4]
  MIC: < 2 µg/mL
[5]
  MIC: 2 to 16 µg/mL (≈ 4.47 to 35.8 µM)
AECO001 HSA AGP
  MIC: 2 to 16 µg/mL (≈ 4.47 to 35.8 µM)
AECO001 (ATCC25922)
  MIC: 2 to 16 µg/mL (≈ 4.47 to 35.8 µM)

## C[C@@H](NC(=O)CNC1CC1)[C@H](NC(=O)c1ccc(C#CC#Cc2ccccc2)cc1)C(=O)NO [Example 85-2]
[1]
  MIC: < 2 µg/mL
[2]
  MIC: 16 to 64 µg/mL (≈ 34.9 to 140 µM)
[3]
  MIC APAE006 + PMBN: A (MIC's of 2.0 μg/mL or less = A)
APAE001 (ATCC27853)
  MIC: 2 to 16 µg/mL (≈ 4.36 to 34.9 µM)
[4]
  MIC: < 2 µg/mL
[5]
  MIC: 16 to 64 µg/mL (≈ 34.9 to 140 µM)
AECO001 HSA AGP
  MIC: 2 to 16 µg/mL (≈ 4.36 to 34.9 µM)
AECO001 (ATCC25922)
  MIC: < 2 µg/mL

## C[C@@H](N)[C@H](NC(=O)c1ccc(C#Cc2ccc(CCO)cc2)cc1)C(=O)NO [Example 120-3]
[1]
  MIC: < 2 µg/mL
[2]
  MIC: 2 to 16 µg/mL (≈ 5.24 to 41.9 µM)
[3]
  MIC APAE006 + PMBN: A (MIC's of 2.0 μg/mL or less = A)
APAE001 (ATCC27853)
  MIC: < 2 µg/mL
[4]
  MIC: < 2 µg/mL
[5]
  MIC: > 64 µg/mL
AECO001 HSA AGP
  MIC: 2 to 16 µg/mL (≈ 5.24 to 41.9 µM)
AECO001 (ATCC25922)
  MIC: < 2 µg/mL

## NC[C@H](NC(=O)c1ccc(C#C/C=C/c2ccccc2)cc1)C(=O)NO [Example 104-2]
[1]
  MIC: < 2 µg/mL
[2]
  MIC: 16 to 64 µg/mL (≈ 45.8 to 183 µM)
[3]
  MIC APAE006 + PMBN: A (MIC's of 2.0 μg/mL or less = A)
APAE001 (ATCC27853)
  MIC: 2 to 16 µg/mL (≈ 5.72 to 45.8 µM)
[4]
  MIC: < 2 µg/mL
[5]
  MIC: 16 to 64 µg/mL (≈ 45.8 to 183 µM)
AECO001 HSA AGP
  MIC: 2 to 16 µg/mL (≈ 5.72 to 45.8 µM)
AECO001 (ATCC25922)
  MIC: < 2 µg/mL

## O=C(N[C@H](C(=O)NO)C1CCCC1)c1ccc(C#Cc2ccc(CN3CCOCC3)cc2)cc1 [Example 66-6]
[1]
  MIC: < 2 µg/mL
[2]
  MIC: 16 to 64 µg/mL (≈ 34.7 to 139 µM)
[3]
  MIC APAE006 + PMBN: A (MIC's of 2.0 μg/mL or less = A)
APAE001 (ATCC27853)
  MIC: 16 to 64 µg/mL (≈ 34.7 to 139 µM)
[4]
  MIC: < 2 µg/mL
[5]
  MIC: > 64 µg/mL
AECO001 HSA AGP
  MIC: 2 to 16 µg/mL (≈ 4.33 to 34.7 µM)
AECO001 (ATCC25922)
  MIC: < 2 µg/mL

## C[C@@H](N)[C@H](NC(=O)c1ccc(C#CC#Cc2ccncc2)cc1)C(=O)NO [Example 88-2]
[1]
  MIC: < 2 µg/mL
[2]
  MIC: 2 to 16 µg/mL (≈ 5.52 to 44.2 µM)
[3]
  MIC APAE006 + PMBN: A (MIC's of 2.0 μg/mL or less = A)
APAE001 (ATCC27853)
  MIC: < 2 µg/mL
[4]
  MIC: < 2 µg/mL
[5]
  MIC: 2 to 16 µg/mL (≈ 5.52 to 44.2 µM)
AECO001 HSA AGP
  MIC: 2 to 16 µg/mL (≈ 5.52 to 44.2 µM)
AECO001 (ATCC25922)
  MIC: < 2 µg/mL

## C[C@@H](O)[C@H](NC(=O)c1ccc(C#Cc2ccc(C(F)(F)F)nc2)cc1)C(=O)NO [Example 133-10]
[1]
  MIC: < 2 µg/mL
[2]
  MIC: 16 to 64 µg/mL (≈ 39.3 to 157 µM)
[3]
  MIC APAE006 + PMBN: A (MIC's of 2.0 μg/mL or less = A)
APAE001 (ATCC27853)
  MIC: 16 to 64 µg/mL (≈ 39.3 to 157 µM)
[4]
  MIC: < 2 µg/mL
[5]
  MIC: 16 to 64 µg/mL (≈ 39.3 to 157 µM)
AECO001 HSA AGP
  MIC: 2 to 16 µg/mL (≈ 4.91 to 39.3 µM)
AECO001 (ATCC25922)
  MIC: 2 to 16 µg/mL (≈ 4.91 to 39.3 µM)

## C[C@@H](N)[C@H](NC(=O)c1ccc(C#Cc2ccc(CNC3CCC3)cc2)cc1)C(=O)NO [Example 119-2]
[1]
  MIC: < 2 µg/mL
[2]
  MIC: > 64 µg/mL
[3]
  MIC APAE006 + PMBN: A (MIC's of 2.0 μg/mL or less = A)
APAE001 (ATCC27853)
  MIC: < 2 µg/mL
[4]
  MIC: 2 to 16 µg/mL (≈ 4.76 to 38 µM)
[5]
  MIC: > 64 µg/mL
AECO001 HSA AGP
  MIC: 16 to 64 µg/mL (≈ 38 to 152 µM)
AECO001 (ATCC25922)
  MIC: 2 to 16 µg/mL (≈ 4.76 to 38 µM)
